Results from publication PMC12155096 (International Journal of Molecular Sciences, 2025).

What follows are compounds tested against T1, human CYP2C19 (Homo sapiens, UniProt P33261) (assay: biochemical). Settings: CYP2C19 AC50 (half-maximal activity concentration).
T1 sequence (P33261 whole entry): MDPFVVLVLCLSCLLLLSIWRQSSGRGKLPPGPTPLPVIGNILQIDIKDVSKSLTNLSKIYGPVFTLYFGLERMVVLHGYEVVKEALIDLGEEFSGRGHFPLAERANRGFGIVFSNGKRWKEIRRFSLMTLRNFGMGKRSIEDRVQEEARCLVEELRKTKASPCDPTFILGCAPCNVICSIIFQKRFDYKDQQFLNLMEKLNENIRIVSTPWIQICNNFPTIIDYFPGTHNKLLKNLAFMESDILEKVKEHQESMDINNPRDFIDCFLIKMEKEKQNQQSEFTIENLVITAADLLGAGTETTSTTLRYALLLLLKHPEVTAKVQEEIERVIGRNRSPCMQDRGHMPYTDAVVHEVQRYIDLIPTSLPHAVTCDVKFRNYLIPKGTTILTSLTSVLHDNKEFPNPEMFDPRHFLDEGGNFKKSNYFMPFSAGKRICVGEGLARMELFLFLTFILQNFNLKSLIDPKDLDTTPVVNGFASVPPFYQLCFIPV

| SMILES | AC50 |
| --- | --- |
| O=S(=O)(c1ccc(O)cc1)c1ccc(O)cc1 [4,4'-Sulfonyldiphenol] | 16.4 µM |

These compounds were tested against T2, human CYP1A2 (Homo sapiens, UniProt P05177) (assay: not given). Settings: not given.
T2 sequence (P05177 1-516): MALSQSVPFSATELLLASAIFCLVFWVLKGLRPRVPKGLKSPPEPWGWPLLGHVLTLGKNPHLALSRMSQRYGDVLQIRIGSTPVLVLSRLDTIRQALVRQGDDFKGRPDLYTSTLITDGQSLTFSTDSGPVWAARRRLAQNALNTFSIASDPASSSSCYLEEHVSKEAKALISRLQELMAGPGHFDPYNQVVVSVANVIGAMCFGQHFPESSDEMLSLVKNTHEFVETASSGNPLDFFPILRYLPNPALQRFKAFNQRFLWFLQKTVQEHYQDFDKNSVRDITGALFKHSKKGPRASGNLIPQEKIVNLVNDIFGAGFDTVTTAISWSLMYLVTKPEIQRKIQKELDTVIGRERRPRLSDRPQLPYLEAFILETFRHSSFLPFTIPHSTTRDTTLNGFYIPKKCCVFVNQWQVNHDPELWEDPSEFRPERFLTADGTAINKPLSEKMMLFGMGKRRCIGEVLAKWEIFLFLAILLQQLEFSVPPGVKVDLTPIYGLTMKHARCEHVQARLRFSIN

| SMILES | AC50 | CYP1A2 AC50 (half-maximal activity concentration) |
| --- | --- | --- |
| CC(C)(C)C(=O)C=Cc1ccc(Cl)cc1 | 21.2 µM | – |
| CC(=O)c1cc(C(C)(C)C)cc2c1CCC2(C)C | 34.4 µM | – |
| Cl.O.c1cnc2c(c1)ccc1cccnc12 | 10.6 µM | – |
| Clc1cnc(Oc2ccc(Oc3ncc(Cl)cc3Cl)cc2)c(Cl)c1 | – | Inactive |
| C1CC(COCC2CO2)CCC1COCC1CO1 (stereo not shown) | – | Inconclusive inhibitor |
| CC(C)(C)C1=CC(=O)C(C(C)(C)C)=CC1=O | 16.1 µM | – |
| O=S1(=O)CC(Cl)(Cl)C(Cl)(Cl)C1 | 31.2 µM | – |
| CC(C)(c1ccc(Oc2ccc3c(c2)C(=O)OC3=O)cc1)c1ccc(Oc2ccc3c(c2)C(=O)OC3=O)cc1 | 63.2 µM | – |
| Cl.Nc1c2ccccc2nc2ccccc12.O | 2.13 µM | – |
| CCCCCCCCCCCCCC[N+](C)(C)Cc1ccccc1.O.O.[Cl-] | – | Inactive |
| CCCOC(=O)c1c(Cl)c(Cl)c(Cl)c(Cl)c1C(=O)OCCC | 1.72 µM | – |
| CCOC(=O)CC(=O)Cc1cc(F)c(Cl)nc1Cl | 65.1 µM | – |
| CCOC(=O)N1CCC(n2c(=O)[nH]c3cc(Cl)ccc32)CC1 | 22.6 µM | – |
| C=C(C)C(=O)OCCOc1ccccc1 | 24.5 µM | – |
| C=C(C)C(=O)OCC[N+](C)(C)C.[Cl-] | 10.5 µM | – |
| CC1=Nc2ccc3ccccc3c2C1(C)C [1,1,2-Trimethyl-1H-benzo[e]indole] | 26.7 µM | – |
| O=S(=O)(c1ccc(O)cc1)c1ccc(O)cc1 [4,4'-Sulfonyldiphenol] | – | Inconclusive inhibitor |

What follows are compounds tested against human CYP2D6 (Homo sapiens, UniProt P10635) (assay: not given). Settings: not given.
Chain of human CYP2D6 (P10635 whole entry): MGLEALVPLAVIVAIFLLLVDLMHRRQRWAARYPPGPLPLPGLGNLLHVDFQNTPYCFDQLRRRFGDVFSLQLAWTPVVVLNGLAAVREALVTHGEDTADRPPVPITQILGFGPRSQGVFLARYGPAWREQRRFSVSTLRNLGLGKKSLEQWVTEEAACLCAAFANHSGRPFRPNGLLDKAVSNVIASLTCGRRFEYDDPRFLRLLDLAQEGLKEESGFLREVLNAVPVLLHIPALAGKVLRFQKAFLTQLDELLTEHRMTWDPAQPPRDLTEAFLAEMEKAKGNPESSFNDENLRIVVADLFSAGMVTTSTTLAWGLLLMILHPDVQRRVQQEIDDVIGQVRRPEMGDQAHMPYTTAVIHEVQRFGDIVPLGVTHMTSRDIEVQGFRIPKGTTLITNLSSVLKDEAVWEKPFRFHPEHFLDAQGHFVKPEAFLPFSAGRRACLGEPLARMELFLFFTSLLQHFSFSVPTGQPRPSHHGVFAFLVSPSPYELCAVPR

| SMILES | CYP2D6 AC50 (half-maximal activity concentration) | AC50 |
| --- | --- | --- |
| CC(C)(C)C(=O)C=Cc1ccc(Cl)cc1 | Inactive | – |
| CC(=O)c1cc(C(C)(C)C)cc2c1CCC2(C)C | Inactive | – |
| Cl.O.c1cnc2c(c1)ccc1cccnc12 | – | 38.5 µM |
| Clc1cnc(Oc2ccc(Oc3ncc(Cl)cc3Cl)cc2)c(Cl)c1 | Inactive | – |
| C1CC(COCC2CO2)CCC1COCC1CO1 (stereo not shown) | Inactive | – |
| CC(C)(C)C1=CC(=O)C(C(C)(C)C)=CC1=O | Inconclusive inhibitor | – |
| O=S1(=O)CC(Cl)(Cl)C(Cl)(Cl)C1 | – | 48.8 µM |
| CC(C)(c1ccc(Oc2ccc3c(c2)C(=O)OC3=O)cc1)c1ccc(Oc2ccc3c(c2)C(=O)OC3=O)cc1 | – | 37.9 µM |
| Cl.Nc1c2ccccc2nc2ccccc12.O | – | 12.9 µM |
| CCCCCCCCCCCCCC[N+](C)(C)Cc1ccccc1.O.O.[Cl-] | – | 2.01 µM |
| CCCOC(=O)c1c(Cl)c(Cl)c(Cl)c(Cl)c1C(=O)OCCC | Inconclusive inhibitor | – |
| CCOC(=O)CC(=O)Cc1cc(F)c(Cl)nc1Cl | Inactive | – |
| CCOC(=O)N1CCC(n2c(=O)[nH]c3cc(Cl)ccc32)CC1 | Inactive | – |
| C=C(C)C(=O)OCCOc1ccccc1 | Inactive | – |
| C=C(C)C(=O)OCC[N+](C)(C)C.[Cl-] | Inactive | – |
| CC1=Nc2ccc3ccccc3c2C1(C)C [1,1,2-Trimethyl-1H-benzo[e]indole] | – | 54 µM |
| O=S(=O)(c1ccc(O)cc1)c1ccc(O)cc1 [4,4'-Sulfonyldiphenol] | Inactive | – |

What follows are compounds tested against T3, human CYP2C9 (Homo sapiens, UniProt P11712) (assay: biochemical). Settings: CYP2C9 AC50 (half-maximal activity concentration).
T3 sequence (P11712 whole entry): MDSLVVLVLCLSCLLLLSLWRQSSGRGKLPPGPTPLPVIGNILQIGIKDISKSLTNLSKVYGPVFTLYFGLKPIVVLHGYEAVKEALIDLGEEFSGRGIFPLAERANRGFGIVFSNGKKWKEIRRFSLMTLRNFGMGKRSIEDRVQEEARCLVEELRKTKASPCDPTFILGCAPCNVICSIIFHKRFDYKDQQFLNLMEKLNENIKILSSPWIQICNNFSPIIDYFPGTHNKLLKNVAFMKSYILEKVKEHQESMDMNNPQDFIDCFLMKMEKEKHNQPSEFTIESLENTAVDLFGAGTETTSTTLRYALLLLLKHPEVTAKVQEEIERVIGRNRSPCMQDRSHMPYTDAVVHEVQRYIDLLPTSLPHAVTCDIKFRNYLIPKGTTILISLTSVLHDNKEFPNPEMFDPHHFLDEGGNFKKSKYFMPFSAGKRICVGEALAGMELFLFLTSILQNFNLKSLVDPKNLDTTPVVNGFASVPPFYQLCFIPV

| SMILES | AC50 |
| --- | --- |
| O=S(=O)(c1ccc(O)cc1)c1ccc(O)cc1 [4,4'-Sulfonyldiphenol] | 1340 nM |

The compounds below were run against T3, human CYP2C9 (assay: not given). Settings: not given.

| SMILES | AC50 | CYP2C9 AC50 (half-maximal activity concentration) |
| --- | --- | --- |
| CC(C)(C)C(=O)C=Cc1ccc(Cl)cc1 | 54 µM | – |
| CC(=O)c1cc(C(C)(C)C)cc2c1CCC2(C)C | 27.6 µM | – |
| Cl.O.c1cnc2c(c1)ccc1cccnc12 | 4.59 µM | – |
| Clc1cnc(Oc2ccc(Oc3ncc(Cl)cc3Cl)cc2)c(Cl)c1 | 2.34 µM | – |
| C1CC(COCC2CO2)CCC1COCC1CO1 (stereo not shown) | 56.6 µM | – |
| CC(C)(C)C1=CC(=O)C(C(C)(C)C)=CC1=O | 20.8 µM | – |
| O=S1(=O)CC(Cl)(Cl)C(Cl)(Cl)C1 | 27.5 µM | – |
| CC(C)(c1ccc(Oc2ccc3c(c2)C(=O)OC3=O)cc1)c1ccc(Oc2ccc3c(c2)C(=O)OC3=O)cc1 | – | Inconclusive inhibitor |
| Cl.Nc1c2ccccc2nc2ccccc12.O | 28.8 µM | – |
| CCCCCCCCCCCCCC[N+](C)(C)Cc1ccccc1.O.O.[Cl-] | 40.7 µM | – |
| CCCOC(=O)c1c(Cl)c(Cl)c(Cl)c(Cl)c1C(=O)OCCC | 20.1 µM | – |
| CCOC(=O)CC(=O)Cc1cc(F)c(Cl)nc1Cl | 46.3 µM | – |
| CCOC(=O)N1CCC(n2c(=O)[nH]c3cc(Cl)ccc32)CC1 | 9.24 µM | – |
| C=C(C)C(=O)OCCOc1ccccc1 | 38.6 µM | – |
| C=C(C)C(=O)OCC[N+](C)(C)C.[Cl-] | – | Inactive |
| CC1=Nc2ccc3ccccc3c2C1(C)C [1,1,2-Trimethyl-1H-benzo[e]indole] | 51.7 µM | – |

The compounds below were run against T1, human CYP2C19 (assay: not given). Settings: not given.

| SMILES | AC50 | CYP2C19 AC50 (half-maximal activity concentration) |
| --- | --- | --- |
| CC(C)(C)C(=O)C=Cc1ccc(Cl)cc1 | 6.98 µM | – |
| CC(=O)c1cc(C(C)(C)C)cc2c1CCC2(C)C | – | Inconclusive |
| Cl.O.c1cnc2c(c1)ccc1cccnc12 | 8.94 µM | – |
| Clc1cnc(Oc2ccc(Oc3ncc(Cl)cc3Cl)cc2)c(Cl)c1 | – | Inactive |
| C1CC(COCC2CO2)CCC1COCC1CO1 (stereo not shown) | – | Inconclusive inhibitor |
| CC(C)(C)C1=CC(=O)C(C(C)(C)C)=CC1=O | 7.8 µM | – |
| O=S1(=O)CC(Cl)(Cl)C(Cl)(Cl)C1 | 60.4 µM | – |
| CC(C)(c1ccc(Oc2ccc3c(c2)C(=O)OC3=O)cc1)c1ccc(Oc2ccc3c(c2)C(=O)OC3=O)cc1 | – | Inconclusive inhibitor |
| Cl.Nc1c2ccccc2nc2ccccc12.O | – | Inconclusive activator |
| CCCCCCCCCCCCCC[N+](C)(C)Cc1ccccc1.O.O.[Cl-] | – | Inactive |
| CCCOC(=O)c1c(Cl)c(Cl)c(Cl)c(Cl)c1C(=O)OCCC | 12.5 µM | – |
| CCOC(=O)CC(=O)Cc1cc(F)c(Cl)nc1Cl | – | Inconclusive inhibitor |
| CCOC(=O)N1CCC(n2c(=O)[nH]c3cc(Cl)ccc32)CC1 | 16.6 µM | – |
| C=C(C)C(=O)OCCOc1ccccc1 | 28.6 µM | – |
| C=C(C)C(=O)OCC[N+](C)(C)C.[Cl-] | – | Inactive |
| CC1=Nc2ccc3ccccc3c2C1(C)C [1,1,2-Trimethyl-1H-benzo[e]indole] | 10.1 µM | – |

Each compound was assayed against CYP3A4 (Homo sapiens, UniProt P08684) (assay: not given). Settings: not given.
Chain of CYP3A4 (P08684 whole entry): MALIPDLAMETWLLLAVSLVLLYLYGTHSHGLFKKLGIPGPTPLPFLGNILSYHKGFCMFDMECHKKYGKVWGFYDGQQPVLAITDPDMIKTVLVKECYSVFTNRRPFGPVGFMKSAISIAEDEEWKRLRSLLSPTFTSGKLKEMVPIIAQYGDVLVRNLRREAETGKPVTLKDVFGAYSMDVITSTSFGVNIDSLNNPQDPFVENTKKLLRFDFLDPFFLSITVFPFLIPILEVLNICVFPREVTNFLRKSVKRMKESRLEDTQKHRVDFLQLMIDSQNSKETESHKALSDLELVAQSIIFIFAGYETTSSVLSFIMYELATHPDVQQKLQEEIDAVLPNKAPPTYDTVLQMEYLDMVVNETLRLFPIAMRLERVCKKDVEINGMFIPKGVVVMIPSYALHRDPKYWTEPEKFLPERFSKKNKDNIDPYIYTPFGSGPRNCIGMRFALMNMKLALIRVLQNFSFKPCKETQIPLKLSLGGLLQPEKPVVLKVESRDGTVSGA

| SMILES | AC50 | CYP3A4 AC50 (half-maximal activity concentration) |
| --- | --- | --- |
| CC(C)(C)C(=O)C=Cc1ccc(Cl)cc1 | 20 µM | – |
| CC(=O)c1cc(C(C)(C)C)cc2c1CCC2(C)C | 10.5 µM | – |
| Cl.O.c1cnc2c(c1)ccc1cccnc12 | 38.5 µM | – |
| Clc1cnc(Oc2ccc(Oc3ncc(Cl)cc3Cl)cc2)c(Cl)c1 | – | Inconclusive activator |
| C1CC(COCC2CO2)CCC1COCC1CO1 (stereo not shown) | 73.9 µM | – |
| CC(C)(C)C1=CC(=O)C(C(C)(C)C)=CC1=O | 6.47 µM | – |
| O=S1(=O)CC(Cl)(Cl)C(Cl)(Cl)C1 | 30.8 µM | – |
| CC(C)(c1ccc(Oc2ccc3c(c2)C(=O)OC3=O)cc1)c1ccc(Oc2ccc3c(c2)C(=O)OC3=O)cc1 | 23.4 µM | – |
| Cl.Nc1c2ccccc2nc2ccccc12.O | – | Inactive |
| CCCCCCCCCCCCCC[N+](C)(C)Cc1ccccc1.O.O.[Cl-] | 11.3 µM | – |
| CCCOC(=O)c1c(Cl)c(Cl)c(Cl)c(Cl)c1C(=O)OCCC | 2.63 µM | – |
| CCOC(=O)CC(=O)Cc1cc(F)c(Cl)nc1Cl | 49.1 µM | – |
| CCOC(=O)N1CCC(n2c(=O)[nH]c3cc(Cl)ccc32)CC1 | 6.72 µM | – |
| C=C(C)C(=O)OCCOc1ccccc1 | 19.8 µM | – |
| C=C(C)C(=O)OCC[N+](C)(C)C.[Cl-] | 23.4 µM | – |
| CC1=Nc2ccc3ccccc3c2C1(C)C [1,1,2-Trimethyl-1H-benzo[e]indole] | 2.84 µM | – |
| O=S(=O)(c1ccc(O)cc1)c1ccc(O)cc1 [4,4'-Sulfonyldiphenol] | – | Inactive |
